We go through ten compounds from ChEMBL document CHEMBL3991601, “The target landscape of clinical kinase drugs” (Science, 2017).

The structures appear in SMILES notation. Active and inactive are the calls of the source. Rule as the data show it, for most assays here: actives have a measured Kd and inactives only a lower limit.

Assay [1] deals with T1, Serine/threonine-protein kinase 3 (Homo sapiens, UniProt Q13188).
T1 sequence (Q13188 whole entry): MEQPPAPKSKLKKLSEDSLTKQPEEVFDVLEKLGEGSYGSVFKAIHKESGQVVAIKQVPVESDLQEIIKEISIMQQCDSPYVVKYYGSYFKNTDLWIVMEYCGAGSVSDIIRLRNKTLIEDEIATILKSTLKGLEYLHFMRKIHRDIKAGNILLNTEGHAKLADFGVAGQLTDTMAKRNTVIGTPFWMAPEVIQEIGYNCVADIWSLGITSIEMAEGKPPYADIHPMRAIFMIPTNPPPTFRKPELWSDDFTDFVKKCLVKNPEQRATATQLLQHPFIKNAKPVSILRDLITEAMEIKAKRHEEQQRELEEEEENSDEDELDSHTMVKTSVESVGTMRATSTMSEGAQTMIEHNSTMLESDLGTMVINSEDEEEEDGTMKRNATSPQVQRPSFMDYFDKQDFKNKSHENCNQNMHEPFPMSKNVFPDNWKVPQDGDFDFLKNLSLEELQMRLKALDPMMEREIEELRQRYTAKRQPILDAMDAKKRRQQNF

In assay [2] the target is Protein kinase C alpha type (Homo sapiens, UniProt P17252).
Assay [3] deals with Chromodomain-helicase-DNA-binding protein 4 (Homo sapiens, UniProt Q14839).
Chromodomain-helicase-DNA-binding protein 4, sequence (Q14839 whole entry): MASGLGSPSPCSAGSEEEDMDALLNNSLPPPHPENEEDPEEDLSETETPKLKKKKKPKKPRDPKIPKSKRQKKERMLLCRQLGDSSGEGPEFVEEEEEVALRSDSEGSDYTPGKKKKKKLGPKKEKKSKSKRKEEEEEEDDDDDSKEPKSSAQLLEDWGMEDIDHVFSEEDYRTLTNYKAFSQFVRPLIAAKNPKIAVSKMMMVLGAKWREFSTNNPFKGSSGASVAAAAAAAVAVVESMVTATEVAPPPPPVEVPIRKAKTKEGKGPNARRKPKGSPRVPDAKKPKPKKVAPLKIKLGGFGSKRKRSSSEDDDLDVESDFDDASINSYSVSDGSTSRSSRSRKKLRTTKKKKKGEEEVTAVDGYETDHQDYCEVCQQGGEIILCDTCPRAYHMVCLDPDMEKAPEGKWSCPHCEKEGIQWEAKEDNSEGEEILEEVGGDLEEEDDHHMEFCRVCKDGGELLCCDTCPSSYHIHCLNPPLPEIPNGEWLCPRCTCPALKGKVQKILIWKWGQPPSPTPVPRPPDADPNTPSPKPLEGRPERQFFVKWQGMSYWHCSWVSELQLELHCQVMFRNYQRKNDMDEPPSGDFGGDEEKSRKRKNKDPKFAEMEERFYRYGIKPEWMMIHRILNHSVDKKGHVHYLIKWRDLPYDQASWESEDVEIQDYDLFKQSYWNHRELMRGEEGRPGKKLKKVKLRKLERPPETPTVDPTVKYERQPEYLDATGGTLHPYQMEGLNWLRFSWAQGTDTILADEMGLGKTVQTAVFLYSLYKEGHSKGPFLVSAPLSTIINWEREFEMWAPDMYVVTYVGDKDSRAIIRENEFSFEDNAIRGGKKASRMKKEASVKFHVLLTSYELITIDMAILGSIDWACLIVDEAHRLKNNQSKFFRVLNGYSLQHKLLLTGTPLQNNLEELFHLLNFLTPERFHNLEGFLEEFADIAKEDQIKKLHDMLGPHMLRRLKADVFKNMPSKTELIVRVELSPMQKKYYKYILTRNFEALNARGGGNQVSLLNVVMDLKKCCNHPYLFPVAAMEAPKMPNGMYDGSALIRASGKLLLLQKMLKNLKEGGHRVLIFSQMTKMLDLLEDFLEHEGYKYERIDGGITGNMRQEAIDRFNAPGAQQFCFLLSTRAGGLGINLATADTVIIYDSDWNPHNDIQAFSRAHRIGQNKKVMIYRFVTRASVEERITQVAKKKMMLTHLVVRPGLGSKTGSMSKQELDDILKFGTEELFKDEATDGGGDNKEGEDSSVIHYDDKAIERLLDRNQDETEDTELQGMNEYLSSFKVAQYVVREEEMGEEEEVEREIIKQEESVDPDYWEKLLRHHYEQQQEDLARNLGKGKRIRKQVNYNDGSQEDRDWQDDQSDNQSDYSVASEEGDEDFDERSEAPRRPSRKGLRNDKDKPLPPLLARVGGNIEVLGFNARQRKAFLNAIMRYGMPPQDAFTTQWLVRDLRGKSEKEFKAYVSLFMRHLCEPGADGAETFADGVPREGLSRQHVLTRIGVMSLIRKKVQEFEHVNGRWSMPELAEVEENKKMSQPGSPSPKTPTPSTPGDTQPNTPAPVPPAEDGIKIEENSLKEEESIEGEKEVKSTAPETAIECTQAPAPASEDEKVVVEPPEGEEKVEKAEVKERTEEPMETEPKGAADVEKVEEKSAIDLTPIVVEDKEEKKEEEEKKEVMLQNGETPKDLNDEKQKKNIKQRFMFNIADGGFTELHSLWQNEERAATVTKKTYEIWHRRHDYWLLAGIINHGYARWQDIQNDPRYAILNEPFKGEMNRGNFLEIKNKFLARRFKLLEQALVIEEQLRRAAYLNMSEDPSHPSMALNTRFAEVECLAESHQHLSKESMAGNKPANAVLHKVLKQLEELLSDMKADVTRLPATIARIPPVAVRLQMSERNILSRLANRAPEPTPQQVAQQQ
Assay [4] concerns the target T2, EKC/KEOPS complex subunit TP53RK (Homo sapiens, UniProt Q96S44).
T2 sequence (Q96S44 whole entry): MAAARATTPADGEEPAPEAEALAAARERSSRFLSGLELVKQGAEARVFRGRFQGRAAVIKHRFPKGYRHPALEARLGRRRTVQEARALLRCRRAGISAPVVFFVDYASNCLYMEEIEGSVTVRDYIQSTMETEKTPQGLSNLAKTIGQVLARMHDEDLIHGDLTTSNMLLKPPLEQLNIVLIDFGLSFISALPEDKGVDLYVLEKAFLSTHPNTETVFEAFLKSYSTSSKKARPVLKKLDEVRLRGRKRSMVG

For assay [5], the target named is T3, Exosome RNA helicase MTR4 (Homo sapiens, UniProt P42285).
T3 sequence (P42285 whole entry): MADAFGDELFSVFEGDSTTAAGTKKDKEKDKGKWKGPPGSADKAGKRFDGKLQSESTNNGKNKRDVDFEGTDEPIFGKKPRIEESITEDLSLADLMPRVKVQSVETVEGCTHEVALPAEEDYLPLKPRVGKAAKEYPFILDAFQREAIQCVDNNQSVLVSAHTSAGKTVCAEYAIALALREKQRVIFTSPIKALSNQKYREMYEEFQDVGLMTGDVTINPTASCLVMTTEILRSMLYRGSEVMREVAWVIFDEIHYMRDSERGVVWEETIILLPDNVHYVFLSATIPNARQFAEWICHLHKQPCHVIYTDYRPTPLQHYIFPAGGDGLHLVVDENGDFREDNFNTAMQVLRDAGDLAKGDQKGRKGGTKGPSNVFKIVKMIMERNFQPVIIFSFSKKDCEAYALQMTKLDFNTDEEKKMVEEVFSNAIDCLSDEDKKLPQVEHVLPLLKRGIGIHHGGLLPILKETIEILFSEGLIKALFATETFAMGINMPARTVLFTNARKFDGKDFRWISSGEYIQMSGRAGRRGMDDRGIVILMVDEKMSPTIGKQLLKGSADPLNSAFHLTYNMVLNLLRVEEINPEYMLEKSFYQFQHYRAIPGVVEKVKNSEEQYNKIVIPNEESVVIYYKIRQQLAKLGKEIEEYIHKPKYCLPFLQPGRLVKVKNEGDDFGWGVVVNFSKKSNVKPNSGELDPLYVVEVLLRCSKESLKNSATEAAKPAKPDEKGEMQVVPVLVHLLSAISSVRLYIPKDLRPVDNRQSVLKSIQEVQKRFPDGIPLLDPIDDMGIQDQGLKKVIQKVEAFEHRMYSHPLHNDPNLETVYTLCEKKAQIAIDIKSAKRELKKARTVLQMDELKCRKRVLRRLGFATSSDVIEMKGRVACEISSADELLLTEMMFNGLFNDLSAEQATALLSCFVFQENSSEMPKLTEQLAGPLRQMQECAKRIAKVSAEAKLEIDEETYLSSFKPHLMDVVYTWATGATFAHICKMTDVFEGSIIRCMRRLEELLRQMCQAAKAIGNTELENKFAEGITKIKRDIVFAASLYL

In assay [6] the target is Protein-tyrosine kinase 2-beta (Homo sapiens, UniProt Q14289).
Protein-tyrosine kinase 2-beta, sequence (Q14289 whole entry): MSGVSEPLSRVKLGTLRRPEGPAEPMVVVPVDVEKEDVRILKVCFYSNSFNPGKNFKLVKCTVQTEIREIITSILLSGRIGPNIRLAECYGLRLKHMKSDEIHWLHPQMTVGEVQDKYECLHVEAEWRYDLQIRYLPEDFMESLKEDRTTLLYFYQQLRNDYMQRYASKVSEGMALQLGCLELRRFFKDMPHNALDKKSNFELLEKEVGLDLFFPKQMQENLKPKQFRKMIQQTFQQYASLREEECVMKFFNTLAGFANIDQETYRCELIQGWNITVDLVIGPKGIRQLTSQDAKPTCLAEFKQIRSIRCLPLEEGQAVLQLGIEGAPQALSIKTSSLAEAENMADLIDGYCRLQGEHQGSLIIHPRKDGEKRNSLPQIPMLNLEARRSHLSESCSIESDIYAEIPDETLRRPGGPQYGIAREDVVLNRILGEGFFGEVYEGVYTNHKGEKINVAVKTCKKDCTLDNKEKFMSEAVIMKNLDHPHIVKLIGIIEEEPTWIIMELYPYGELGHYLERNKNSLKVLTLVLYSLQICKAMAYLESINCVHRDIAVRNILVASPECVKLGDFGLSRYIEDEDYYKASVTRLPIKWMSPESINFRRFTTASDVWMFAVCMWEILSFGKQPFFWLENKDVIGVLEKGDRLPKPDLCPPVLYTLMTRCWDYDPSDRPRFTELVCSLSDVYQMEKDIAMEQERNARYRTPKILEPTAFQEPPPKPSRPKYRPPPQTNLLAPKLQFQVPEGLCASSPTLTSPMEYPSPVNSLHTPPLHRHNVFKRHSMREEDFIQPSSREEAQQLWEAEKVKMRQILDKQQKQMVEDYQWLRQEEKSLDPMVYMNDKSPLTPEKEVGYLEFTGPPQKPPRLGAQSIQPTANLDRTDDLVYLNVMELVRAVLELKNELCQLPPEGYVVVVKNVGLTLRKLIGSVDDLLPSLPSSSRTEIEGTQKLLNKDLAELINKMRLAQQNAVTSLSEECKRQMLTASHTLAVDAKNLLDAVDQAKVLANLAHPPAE
The target of assay [7] is Cyclin-dependent kinase 17 (Homo sapiens, UniProt Q00537).
Cyclin-dependent kinase 17, sequence (Q00537 whole entry): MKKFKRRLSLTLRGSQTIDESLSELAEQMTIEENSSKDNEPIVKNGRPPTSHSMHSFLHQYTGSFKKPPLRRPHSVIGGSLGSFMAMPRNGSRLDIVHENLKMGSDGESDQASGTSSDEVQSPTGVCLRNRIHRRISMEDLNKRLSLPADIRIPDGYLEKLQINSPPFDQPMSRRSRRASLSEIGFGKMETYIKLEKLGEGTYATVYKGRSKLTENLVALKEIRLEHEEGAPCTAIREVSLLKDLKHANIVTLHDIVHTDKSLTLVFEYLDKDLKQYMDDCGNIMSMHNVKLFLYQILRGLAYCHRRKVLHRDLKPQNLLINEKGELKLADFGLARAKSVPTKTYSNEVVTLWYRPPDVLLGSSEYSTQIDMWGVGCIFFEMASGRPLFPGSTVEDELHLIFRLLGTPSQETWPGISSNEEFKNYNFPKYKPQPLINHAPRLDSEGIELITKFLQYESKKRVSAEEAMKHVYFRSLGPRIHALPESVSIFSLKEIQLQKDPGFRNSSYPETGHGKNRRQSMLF
The target of a further assay is Activin receptor type-2B (Homo sapiens, UniProt Q13705).
Activin receptor type-2B, sequence (Q13705 whole entry): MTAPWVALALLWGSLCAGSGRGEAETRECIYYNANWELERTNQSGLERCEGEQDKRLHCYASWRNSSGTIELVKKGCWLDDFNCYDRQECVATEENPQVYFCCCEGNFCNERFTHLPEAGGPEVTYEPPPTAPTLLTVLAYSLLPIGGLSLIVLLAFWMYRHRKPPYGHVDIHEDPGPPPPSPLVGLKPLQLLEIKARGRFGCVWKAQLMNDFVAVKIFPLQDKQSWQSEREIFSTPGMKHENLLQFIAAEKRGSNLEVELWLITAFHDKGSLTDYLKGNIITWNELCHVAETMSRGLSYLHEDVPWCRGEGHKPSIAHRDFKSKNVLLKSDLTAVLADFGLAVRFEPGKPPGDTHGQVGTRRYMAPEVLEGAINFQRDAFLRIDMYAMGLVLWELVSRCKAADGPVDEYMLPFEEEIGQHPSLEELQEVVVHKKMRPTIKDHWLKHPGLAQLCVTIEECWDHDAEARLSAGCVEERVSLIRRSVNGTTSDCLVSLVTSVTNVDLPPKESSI
The target of assay [8] is T4, General transcription and DNA repair factor IIH helicase subunit XPD (Homo sapiens, UniProt P18074).
T4 sequence (P18074 whole entry): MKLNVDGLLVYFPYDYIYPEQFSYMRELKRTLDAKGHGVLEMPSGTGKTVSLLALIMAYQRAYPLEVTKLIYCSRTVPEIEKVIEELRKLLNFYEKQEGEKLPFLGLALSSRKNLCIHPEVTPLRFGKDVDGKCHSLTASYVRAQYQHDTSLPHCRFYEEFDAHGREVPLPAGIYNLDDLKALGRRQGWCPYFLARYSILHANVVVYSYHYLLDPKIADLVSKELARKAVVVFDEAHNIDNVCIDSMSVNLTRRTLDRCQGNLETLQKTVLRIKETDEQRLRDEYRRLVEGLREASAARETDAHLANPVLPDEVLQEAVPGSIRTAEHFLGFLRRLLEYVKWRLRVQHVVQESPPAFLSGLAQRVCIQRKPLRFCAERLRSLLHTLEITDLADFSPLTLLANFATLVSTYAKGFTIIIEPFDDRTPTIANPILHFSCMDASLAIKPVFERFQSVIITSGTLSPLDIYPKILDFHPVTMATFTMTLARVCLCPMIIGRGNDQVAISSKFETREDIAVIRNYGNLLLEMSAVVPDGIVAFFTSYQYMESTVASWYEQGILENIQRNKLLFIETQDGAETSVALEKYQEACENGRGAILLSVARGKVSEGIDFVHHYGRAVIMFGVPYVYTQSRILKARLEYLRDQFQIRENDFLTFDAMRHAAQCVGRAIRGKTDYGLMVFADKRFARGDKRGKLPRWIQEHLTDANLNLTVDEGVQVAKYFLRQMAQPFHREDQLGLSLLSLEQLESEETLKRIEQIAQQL
Particulars: read-out: Kd apparent; k-562, colo 205, sk-n-be(2) and mv-4-11.

The target in the next assay is LIM domain kinase 2 (Homo sapiens, UniProt P53671).
LIM domain kinase 2, sequence (P53671 whole entry, the tested form may be a part, canonical isoform): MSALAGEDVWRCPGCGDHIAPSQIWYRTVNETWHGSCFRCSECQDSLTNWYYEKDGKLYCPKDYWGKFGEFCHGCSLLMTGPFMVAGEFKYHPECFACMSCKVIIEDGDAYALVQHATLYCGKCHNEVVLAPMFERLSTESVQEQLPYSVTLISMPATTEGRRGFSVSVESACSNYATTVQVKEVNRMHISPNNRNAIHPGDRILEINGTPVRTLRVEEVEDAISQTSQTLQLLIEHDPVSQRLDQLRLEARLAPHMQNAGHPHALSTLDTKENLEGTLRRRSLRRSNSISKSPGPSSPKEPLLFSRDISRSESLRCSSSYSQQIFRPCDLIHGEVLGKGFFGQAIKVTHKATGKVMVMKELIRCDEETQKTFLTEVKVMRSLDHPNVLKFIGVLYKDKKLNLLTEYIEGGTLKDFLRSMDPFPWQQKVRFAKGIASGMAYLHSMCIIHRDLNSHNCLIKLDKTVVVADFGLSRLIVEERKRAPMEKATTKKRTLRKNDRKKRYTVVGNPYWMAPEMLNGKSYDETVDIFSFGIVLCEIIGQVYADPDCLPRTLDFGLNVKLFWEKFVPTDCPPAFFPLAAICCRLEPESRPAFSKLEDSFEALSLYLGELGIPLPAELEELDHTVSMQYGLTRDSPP
For assay [9], the target named is Casein kinase I isoform epsilon (Homo sapiens, UniProt P49674).
Casein kinase I isoform epsilon, sequence (P49674 whole entry, canonical isoform): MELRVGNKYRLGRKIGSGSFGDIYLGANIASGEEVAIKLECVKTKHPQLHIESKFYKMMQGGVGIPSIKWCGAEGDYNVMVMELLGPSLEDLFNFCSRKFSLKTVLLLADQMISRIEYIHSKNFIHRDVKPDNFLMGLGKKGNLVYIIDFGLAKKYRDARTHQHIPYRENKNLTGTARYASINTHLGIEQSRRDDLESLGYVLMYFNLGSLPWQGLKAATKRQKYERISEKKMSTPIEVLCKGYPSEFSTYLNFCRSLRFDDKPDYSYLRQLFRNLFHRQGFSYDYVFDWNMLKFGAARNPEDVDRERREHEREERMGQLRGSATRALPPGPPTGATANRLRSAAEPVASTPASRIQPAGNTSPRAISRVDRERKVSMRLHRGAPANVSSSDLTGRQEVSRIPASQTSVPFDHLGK
Also: in the data inactive means no Kd found up to 30 µM.

In the case of `C[C@H]1CNCCCN1S(=O)(=O)c1cccc2cncc(F)c12`, the Kd in assay [1], in assay [2], in assay [3], in [4], in assay [5] and in assay [6] was > 30 µM (inactive) in each case. The Kd (in [7]; at Activin receptor type-2B; in assay [8]; on LIM domain kinase 2; in assay [9]) was > 30 µM (inactive) in each case.
For the compound `CCNC(=O)C#Cc1ccc2c(c1)NC(=O)/C2=C(\Nc1ccc(CN(C)C)cc1)c1ccccc1`, the Kd in assay [1] is 5.05 µM (active); in assay [2] it was > 30 µM (inactive); in assay [3], > 30 µM (inactive); in assay [4] it was > 30 µM (inactive); in assay [5], > 30 µM (inactive); in assay [6] it was > 30 µM (inactive). In addition, the Kd (in assay [7]; on Activin receptor type-2B; in [8]; on LIM domain kinase 2; in assay [9]) was > 30 µM (inactive) in each case.
Take `Cc1nc2cc(-c3nn(C(C)C)c4ncnc(N)c34)ccc2o1`: the Kd in assay [1] was > 30 µM (inactive); in assay [2] it was 21.8 µM (active); in assay [3], > 30 µM (inactive); in assay [4] it was > 30 µM (inactive); in [5], > 30 µM (inactive); in assay [6], > 30 µM (inactive). Besides, the Kd in assay [7] is > 30 µM (inactive); at Activin receptor type-2B it was 0.901 µM (active); in [8], > 30 µM (inactive); on LIM domain kinase 2, > 30 µM (inactive); in assay [9] it was 0.158 µM (active).
Regarding `COCc1c(-c2ccc(NC(=O)Nc3cc(C(F)(F)F)ccc3F)c(F)c2)c2c(N)ncnn2c1CN1CCOCC1`, the Kd in [1], in assay [2], in assay [3], in assay [4], in assay [5] and in assay [6] was > 30 µM (inactive) in each case. Besides, the Kd (in assay [7]; at Activin receptor type-2B; in assay [8]; at LIM domain kinase 2; in assay [9]) was > 30 µM (inactive) in each case.
Regarding `Nc1ncnc2c1c(-c1cccc(OCc3ccccc3)c1)cn2[C@H]1C[C@@H](CN2CCC2)C1` [AEW-541], the Kd in [1], in assay [2], in assay [4], in [5], in assay [6] and in [7] was > 30 µM (inactive) throughout. Besides, the Kd was > 30 µM (inactive) on Activin receptor type-2B, > 30 µM (inactive) in [8], > 30 µM (inactive) on LIM domain kinase 2 and 60.5 µM (active) in assay [9].
In the case of `Cc1csc(-c2nnc(Nc3ccc(Oc4ncccc4-c4ccnc(N)n4)cc3)c3ccccc23)c1` [AMG-900], the Kd in [1], in assay [2], in assay [3], in assay [4], in assay [5] and in [6] was > 30 µM (inactive) throughout. For the same compound, the Kd (in [7]; on Activin receptor type-2B; in assay [8]; at LIM domain kinase 2; in assay [9]) was > 30 µM (inactive) each time.
In the case of `O=C(Nc1c[nH]nc1-c1nc2cc(CN3CCOCC3)ccc2[nH]1)NC1CC1` [AT-9283], the Kd in [1] is > 30 µM (inactive); in [3] it was > 30 µM (inactive); in assay [4] it was > 30 µM (inactive); in [5], > 30 µM (inactive); in [6], > 30 µM (inactive); in assay [7], 1.15 µM (active). Moreover, the Kd at Activin receptor type-2B was > 30 µM (inactive); in assay [8] it was > 30 µM (inactive); at LIM domain kinase 2, 4.43 µM (active); in assay [9], > 30 µM (inactive).
As for `COc1cc([C@@H]2c3cc4c(cc3[C@H](O)[C@H]3COC(=O)[C@@H]23)OCO4)cc(OC)c1OC` [AXL-1717], the Kd in [1], in [2], in assay [3], in assay [4], in assay [5] and in [6] was > 30 µM (inactive) each time. Besides, the Kd (in assay [7]; at Activin receptor type-2B; in assay [8]; at LIM domain kinase 2; in [9]) was > 30 µM (inactive) each time.
For `Cc1cc(C(=O)NOCCO)c(Nc2ccc(I)cc2F)n(C)c1=O` [AZD-8330], the Kd in [1], in assay [2], in [3], in assay [4], in assay [5] and in assay [6] was > 30 µM (inactive) in each case. In addition, the Kd (in assay [7]; at Activin receptor type-2B; in [8]; on LIM domain kinase 2; in [9]) was > 30 µM (inactive) throughout.
For the compound `Cn1cnc2c(F)c(Nc3ccc(Br)cc3F)c(C(=O)NOCCO)cc21` [BINIMETINIB], the Kd in assay [1], in assay [2], in assay [3], in [4], in assay [5] and in assay [6] was > 30 µM (inactive) in each case. The Kd (in [7]; at Activin receptor type-2B; in [8]; on LIM domain kinase 2; in assay [9]) was > 30 µM (inactive) each time.
